Assay results from patent US9168259B2 (GRÜNENTHAL GMBH, priority 2010, dated 2015).
pEC50: −log10 of the molar value. Where two headings read alike, the source gives them in different places.

Molecular target: T1, KCNQ2/3 channels (Homo sapiens, UniProt O43525+O43526)
T1 construct: expressed in transfected cells
Experiment: Fluorescence assay using a voltage sensitive dye (fluorimetry)
Format: cell-based
Details: for pEC50: IC50 where % efficacy is negative, read-out: Fluorimetry EC50/IC50
Text: Method I. Fluorescence Assay Using a Voltage Sensitive Dye (Fluorimetry)
These voltage-sensitive dyes are fluorescent dyes and, therefore, are forming the link between cell potential influenced by KCNQ modulation and fluorescence intensity. A KCNQ agonist leads to an opening of the channel, potassium and dye efflux, a following hyperpolarization and a reduction of the inner fluorescence intensity in a kinetic protocol. If applying an ion jump by KCl depolarization, KCNQ agonists increase the ΔF/F value. An antagonist performs vice versa, respectively.
Therefore, ‘fluorimetry EC50’ is a measure for the compound potency. The compound efficacy is mirrored by ‘fluorimetry % efficacy’ (‘% Efficacy’) and refers to the maximum response achievable by the test compound, i.e. the plateau effect. This drug's plateau effect is related to the plateau effect, which can be achieved by applying a saturated concentration of a reference compound, e.g. Retigabine (50 μM), in independent wells of the same experimental plate or series.
[…] CHO-K1 cells expressing KCNQ2/3 channels are cultivated adherently at 37° C., 5% CO2 and 95% humidity in cell culture bottles (e.g. 80 cm^2 TC flasks, Nunc) with DMEM-high glucose (Sigma Aldrich, D7777) including 10% FCS (PAN Biotech, e.g. 3302-P270521) or alternatively MEM Alpha Medium (1×, liquid, Invitrogen, #22571), 10% fetal calf serum (FCS) (Invitrogen, #10270-106, heat-inactivated) and the necessary selection antibiotics.
The cell number is determined using a CASY™ cell counter (TCC, Schärfe System). Depending on the optimal density for each individual cell line, 20,000-30,000 cells/well/100 μl are seeded onto 96-well Corning™ CellBIND™ assay plates (Flat Clear Bottom Black Polystyrene Microplates, #3340). Freshly seeded cells are then left to settle for one hour at room temperature, followed by incubation for 24 hours at 37° C., 5% CO2 and 95% humidity.
The voltage-sensitive fluorescent dye from the Membrane Potential Assay Kit (Red™ Bulk format part R8123 for FLIPR, MDS Analytical Technologies™) is prepared by dissolving the contents of one vessel Membrane Potential Assay Kit Red Component A in 200 ml of extracellular buffer (ES buffer, 120 mM NaCl, 1 mM KCl, 10 mM HEPES, 2 mM CaCl2, 2 mM MgCl2, 10 mM glucose; pH 7.4). After removal of the nutrient medium, the cells are washed once with 200 μl of ES buffer, then loaded for 45 min at room temperature in 100 μl of dye solution in the dark.
Fluorescence measurements are carried out in a BMG Labtech FLUOstar™, BMG Labtech NOVOstar™ or BMG Labtech POLARstar™ instrument (525 nm excitation, 560 nm emission, Bottom Read mode). After incubation with the dye, 50 μl of the test substances in the desired concentrations, or 50 μl of ES buffer for control purposes, are applied to the wells of the assay plate and incubated for 30 min at room temperature while being shielded from light. The fluorescence intensity of the dye is then measured for 5 min and the fluorescence value F1 of each well is thus determined at a given, constant time. 15 μl of a KCl solution are then added to each well (final concentration of potassium ions 92 mM). The change in fluorescence intensity is subsequently monitored until all the relevant values have been obtained (mainly 5-30 min). At a given time post KCl application, a fluorescence value F2 is determined, in this case at the time of the fluorescence peak.
For calculation, the fluorescence intensity F2 is corrected for the fluorescence intensity F1, and the activity (ΔF/F) of the target compound on the potassium channel is determined as follows:
In order to determine whether a substance has agonistic activity,
[formula] can be related to
[formula] of control wells.
[formula] is determined by adding to the well only the buffer solution instead of the test substance, determining the value F1K of the fluorescence intensity, adding the potassium ions as described above, and measuring a value F2K of the fluorescence intensity.

[1] = CHO-K1, plateau effect relative to saturated retigabine (50 μM) = 100%, CHO-K1 cells expressing KCNQ2/3, negative values = antagonistic, read-out: Fluorimetry % efficacy (retigabine = 100%)
[2] = CHO-K1 cells expressing KCNQ2/3

T1 sequence (O43526 whole entry): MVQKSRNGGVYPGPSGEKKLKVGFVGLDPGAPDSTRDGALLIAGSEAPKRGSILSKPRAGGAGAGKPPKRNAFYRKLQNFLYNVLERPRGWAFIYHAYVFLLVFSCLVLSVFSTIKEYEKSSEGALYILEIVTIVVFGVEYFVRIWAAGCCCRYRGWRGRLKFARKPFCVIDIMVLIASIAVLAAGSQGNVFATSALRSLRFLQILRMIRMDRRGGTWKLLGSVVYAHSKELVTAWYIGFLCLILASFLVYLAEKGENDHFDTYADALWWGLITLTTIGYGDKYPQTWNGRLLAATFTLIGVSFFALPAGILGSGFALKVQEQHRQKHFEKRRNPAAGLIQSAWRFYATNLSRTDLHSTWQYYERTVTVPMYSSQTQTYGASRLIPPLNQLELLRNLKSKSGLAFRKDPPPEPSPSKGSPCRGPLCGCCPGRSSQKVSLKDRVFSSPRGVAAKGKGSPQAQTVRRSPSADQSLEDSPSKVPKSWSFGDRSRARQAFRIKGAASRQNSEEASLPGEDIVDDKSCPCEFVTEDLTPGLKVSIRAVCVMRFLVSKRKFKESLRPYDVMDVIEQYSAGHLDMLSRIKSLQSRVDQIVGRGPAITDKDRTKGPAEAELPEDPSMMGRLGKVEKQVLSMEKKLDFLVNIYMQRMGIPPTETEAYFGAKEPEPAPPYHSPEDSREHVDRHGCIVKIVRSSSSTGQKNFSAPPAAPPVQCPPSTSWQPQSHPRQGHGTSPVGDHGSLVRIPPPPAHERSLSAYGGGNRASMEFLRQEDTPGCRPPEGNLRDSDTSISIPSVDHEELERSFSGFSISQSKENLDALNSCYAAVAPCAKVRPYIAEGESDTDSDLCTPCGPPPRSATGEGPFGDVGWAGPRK
T1 sequence (O43525 whole entry): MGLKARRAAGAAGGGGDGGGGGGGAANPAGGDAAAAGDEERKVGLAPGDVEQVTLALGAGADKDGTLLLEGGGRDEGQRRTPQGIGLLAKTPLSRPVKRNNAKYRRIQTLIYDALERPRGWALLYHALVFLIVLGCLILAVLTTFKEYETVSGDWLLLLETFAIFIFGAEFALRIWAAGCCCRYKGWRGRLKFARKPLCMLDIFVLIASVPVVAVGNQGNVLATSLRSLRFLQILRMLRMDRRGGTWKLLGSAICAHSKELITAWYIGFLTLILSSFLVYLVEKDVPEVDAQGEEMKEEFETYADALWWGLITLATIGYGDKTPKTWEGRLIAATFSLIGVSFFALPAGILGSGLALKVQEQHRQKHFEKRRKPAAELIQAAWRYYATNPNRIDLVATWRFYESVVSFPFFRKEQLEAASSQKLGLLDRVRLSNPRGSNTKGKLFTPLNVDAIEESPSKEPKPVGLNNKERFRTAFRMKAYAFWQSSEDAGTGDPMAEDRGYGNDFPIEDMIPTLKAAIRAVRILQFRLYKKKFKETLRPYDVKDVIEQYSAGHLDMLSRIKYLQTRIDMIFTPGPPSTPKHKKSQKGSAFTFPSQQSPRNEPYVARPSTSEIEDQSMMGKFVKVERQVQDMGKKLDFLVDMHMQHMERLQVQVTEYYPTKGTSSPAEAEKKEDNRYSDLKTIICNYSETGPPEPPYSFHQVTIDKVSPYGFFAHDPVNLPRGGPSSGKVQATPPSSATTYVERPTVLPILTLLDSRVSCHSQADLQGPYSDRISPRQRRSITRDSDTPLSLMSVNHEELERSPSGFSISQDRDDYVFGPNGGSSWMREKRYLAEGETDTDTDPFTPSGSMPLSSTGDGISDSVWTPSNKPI

Compound | Emax [1] | pEC50 [2] | Emax (CHO-K1, read-out: Fluorimetry % efficacy (retigabine = 100%))
CCOc1nc(N2CCCOCC2)cc(C)c1C(=O)NCc1cccc(F)c1 [Example 99, 2-Ethoxy-N-[(3-fluorophenyl)-methyl]-4-methyl-6-([1,4]oxazepan-4-yl)-pyridine-3-carboxylic acid amide] | 134% | 6.05 | 
CCSc1nc(NC)cc(C)c1C(=O)NCc1cccc(F)c1 [Example 34, 2-Ethylsulfanyl-N-[(3-fluorophenyl)-methyl]-4-methyl-6-methylamino-pyridine-3-carboxylic acid amide] | 37% | 5.74 | 
CCSc1nc(N2CCCC2)cc(C)c1C(=O)NCc1cccc(F)c1 [Example 25, 2-Ethylsulfanyl-N-[(3-fluorophenyl)-methyl]-4-methyl-6-pyrrolidin-1-yl-pyridine-3-carboxylic acid amide] | 162% | 6.68 | 
CCOC(=O)CN(C)c1cc(C)c(C(=O)NCc2cccc(F)c2)c(SCC)n1 [Example 72] |  | 5.68 | 93%
CCSc1nc(N2CCOCC2)cc(C)c1C(=O)NCCCc1ccncc1 [Example 115, 2-Ethylsulfanyl-4-methyl-6-morpholin-4-yl-N-(3-pyridin-4-yl-propyl)-pyridine-3-carboxylic acid amide] | 96% | 5.10 | 
CCOc1nc(N2CCOCC2)cc(C)c1C(=O)NCc1cc(F)cc(F)c1 [Example 90, N-[(3,5-Difluoro-phenyl)-methyl]-2-ethoxy-4-methyl-6-morpholin-4-yl-pyridine-3-carboxylic acid amide] | 134% | 6.91 | 
CCSc1nc(N2CCOCC2)cc(C)c1C(=O)NCc1ccc(C(F)(F)F)cc1 [Example 60, 2-Ethylsulfanyl-4-methyl-6-morpholin-4-yl-N-[[4-(trifluoromethyl)-phenyl]methyl]-pyridine-3-carboxylic acid amide] | 128% | 6.90 | 
CCSc1nc(N2CCOCC2)cc(C)c1C(=O)NCCCOC [Example 78, 2-Ethylsulfanyl-N-(3-methoxy-propyl)-4-methyl-6-morpholin-4-yl-pyridine-3-carboxylic acid amide] | 31% |  | 
CCOc1nc(N2CCOCC2)cc(C)c1C(=O)NCCCC(C)(C)C [Example 89, N-(4,4-Dimethyl-pentyl)-2-ethoxy-4-methyl-6-morpholin-4-yl-pyridine-3-carboxylic acid amide] | 268% | 6.86 | 
CCSc1nc(N2CCOCC2)c(F)c(C)c1C(=O)NCc1cccc(F)c1 [Example 58, 2-Ethylsulfanyl-5-fluoro-N-[(3-fluorophenyl)-methyl]-4-methyl-6-morpholin-4-yl-pyridine-3-carboxylic acid amide] | 173% | 5.64 | 

More lines, main results first:

Emax [1] | pEC50 [2] | Compound | Emax (CHO-K1, read-out: Fluorimetry % efficacy (retigabine = 100%))
193% | 5.54 | CCSc1nc(N2CCOCC2)cc(C)c1C(=O)NCCCC(C)(C)OC [Example 318, 2-Ethylsulfanyl-N-(4-methoxy-4-methyl-pentyl)-4-methyl-6-morpholin-4-yl-pyridine-3-carboxylic acid amide] | 
97% | 5.80 | CCSc1nc(N2CCN(CC(F)(F)F)CC2)cc(C)c1C(=O)NCc1cccc(F)c1 [Example 251, 2-Ethylsulfanyl-N-[(3-fluorophenyl)-methyl]-4-methyl-6-[4-(2,2,2-trifluoro-ethyl)-piperazin-1-yl]-pyridine-3-carboxylic acid amide] | 
191% | 6.83 | COc1nc(N2CCOC[C@H]2C)cc(C)c1C(=O)NCc1ccc(Cl)cc1 [Example 215, N-[(4-Chlorophenyl)-methyl]-2-methoxy-4-methyl-6-[(3R)-3-methyl-morpholin-4-yl]-pyridine-3-carboxylic acid amide] | 
246% | 6.42 | Cc1cc(N2CCOC[C@H]2C)nc(N(C)C)c1C(=O)NCc1ccc(F)cc1 [Example 172, 2-Dimethylamino-N-[(4-fluorophenyl)-methyl]-4-methyl-6-[(3R)-3-methyl-morpholin-4-yl]-pyridine-3-carboxylic acid amide] | 
114% | 5.38 | CCSc1nc(N2CCOC[C@@H]2CO)cc(C)c1C(=O)NCc1cccc(F)c1 [Example 263, 2-Ethylsulfanyl-N-[(3-fluorophenyl)-methyl]-6-[(3S)-3-(hydroxymethyl)-morpholin-4-yl]-4-methyl-pyridine-3-carboxylic acid amide] | 
21% |  | CCSc1nc(N2CCOCC2)cc(C)c1C(=O)NCCCS(C)(=O)=O [Example 162, 2-Ethylsulfanyl-4-methyl-N-(3-methylsulfonyl-propyl)-6-morpholin-4-yl-pyridine-3-carboxylic acid amide] | 
147% | 7.27 | CCSc1nc(N2CCOCC2CC)cc(C)c1C(=O)NCc1cccc(F)c1 (centres unmarked) [Example 178, 6-(3-Ethyl-morpholin-4-yl)-2-ethylsulfanyl-N-[(3-fluorophenyl)-methyl]-4-methyl-pyridine-3-carboxylic acid amide] | 
53% | 5.10 | CCSc1nc(N2CCO[C@H](CO)C2)cc(C)c1C(=O)NCc1cccc(F)c1 [Example 291, 2-Ethylsulfanyl-N-[(3-fluorophenyl)-methyl]-6-[(2S)-2-(hydroxymethyl)-morpholin-4-yl]-4-methyl-pyridine-3-carboxylic acid amide] | 
35% |  | CCSc1nc(N(C)Cc2ccccn2)cc(C)c1C(=O)NCc1cccc(F)c1 [Example 121, 2-Ethylsulfanyl-N-[(3-fluorophenyl)-methyl]-4-methyl-6-[methyl-(pyridin-2-yl-methyl)-amino]-pyridine-3-carboxylic acid amide] | 
166% | 6.08 | CCSc1nc(N2CCOCC2)cc(C)c1C(=O)NCC(=O)CC(C)(C)C [Example 324, N-(4,4-Dimethyl-2-oxo-pentyl)-2-ethylsulfanyl-4-methyl-6-morpholin-4-yl-pyridine-3-carboxylic acid amide] | 
119% | 6.83 | Cc1cc(N2CCOCC2)nc(OCCF)c1C(=O)NCc1ccc(Cl)cc1 [Example 269, N-[(4-Chlorophenyl)-methyl]-2-(2-fluoro-ethoxy)-4-methyl-6-morpholin-4-yl-pyridine-3-carboxylic acid amide] | 
169% | 7.01 | Cc1cc(N2CCOCC2)nc(C2CC2)c1C(=O)NCc1cc(F)cc(F)c1 [Example 333, 2-Cyclopropyl-N-[(3,5-difluoro-phenyl)-methyl]-4-methyl-6-morpholin-4-yl-pyridine-3-carboxylic acid amide] | 
259% | 7.66 | CCC(C)c1nc(N2CCOCC2)cc(C)c1C(=O)NCCCC(C)(C)C (centres unmarked) [Example 221, N-(4,4-Dimethyl-pentyl)-4-methyl-2-(1-methyl-propyl)-6-morpholin-4-yl-pyridine-3-carboxylic acid amide] | 
238% | 6.41 | CCN(C)c1nc(N2CCOCC2)cc(C)c1C(=O)NCc1cccc(F)c1 [Example 127, 2-(Ethyl-methyl-amino)-N-[(3-fluorophenyl)-methyl]-4-methyl-6-morpholin-4-yl-pyridine-3-carboxylic acid amide] | 
127% | 5.34 | CCSc1nc(N2CCS(=O)(=O)CC2)cc(C)c1C(=O)NCc1cccc(F)c1 [Example 298, 6-(1,1-Dioxo-[1,4]thiazinan-4-yl)-2-ethylsulfanyl-N-[(3-fluorophenyl)-methyl]-4-methyl-pyridine-3-carboxylic acid amide] | 
